According to patent US5493007A, “Platelet aggregation inhibitors having high specificity for GPIIBIIIA” (Genentech, Inc., priority 1994, dated 1996):
“And” between values parts separate entries of the source, which are not always exact repeats. Equal entries are not always repeated. *1 amine or outer side, *2 acyl side, *3 side chain or, on linkers, in order; H or OH if unused. Where a SMILES comes first, the peptide text is derived from it. Bridges are numbered along the chain shown (N, C = ends). [ ]: non-standard residue; d: D form. The star is where a group is joined. Ethylenediamine = C(CN[*:2])N[*:1]; Aad = N[C@@H](CCCC(=O)O)C(=O)O; Pen = CC(C)(S)[C@H](N)C(=O)O; Orn = NCCC[C@H](N)C(=O)O; NH(CH2)5NH2 = NCCCCCN*; NH(CH2)3NH2 = NCCCN*

Experiments:
[1] = test system: New Zealand White rabbits; assay: Rabbit cutaneous bleeding time (CBT); conditions: for Rabbit BT Ratio: Example 1, at the % P.A. inhibition given
Method: Unanesthetized male New Zealand White rabbits (2.5-3.5 kg) are placed in a standard rabbit restrainer. Ears are shaved and a 20 G Teflon catheter with flowswitch (Viggo) is placed in the medial artery, flushed with saline and locked with 1 ml of heparinized saline (10 m/ml). A 22 G catheter (Abbott) fitted with an injection cap (Medex) is placed in the marginal vein of the same ear. Saline or a GP IIb IIIa receptor antagonist, at a concentration of 1 to 3 mg/ml, is infused via the venous catheter. At time 0, 41% of the dose is given as a bolus over 2 minutes. The remainder is continuously infused over the following 60 minutes. Blood samples (3.2 ml) are collected into syringes without needles via the arterial catheter at -10, -5, 10, 45, and 60 minutes. The first 0.5 ml is discarded and the following 2.7 ml is collected directly into a syringe containing 0.3 ml of 3.8% sodium citrate. The sample is divided into 1.5 ml aliquots and centrifuged at room temperature for 5 seconds at 12,000 G. The resulting platelet rich plasma (PRP) is used to measure ex-vivo platelet aggregation (XPA). At -10 and 60 minutes an additional 1 cml sample is drawn for an automated blood count (Baker instruments). Catheters are flushed and locked after every sample.
CBT is measured at -10, -5, 10, and 45 minutes on the opposite ear, using an automated incision-making instrument (Surgicutt®, ITD). An incision (5mm×1 mm deep) is made on the dorsal surface of the ear at sites not supplied by major blood vessels. Blood is blotted away with absorbent paper placed near the incision site, every 2 to 15 seconds, to a maximum of 15 minutes. Cessation of bleeding is defined as no blood forming at the incision site for 15 seconds. The range of duplicate CBT in 40 normal rabbits was 0.88 to 3.38 minutes.

GP IIb IIIa = GP IIb IIIa (Homo sapiens, UniProt P05106+P08514); assay: Fibrinogen-GP IIb IIIa Receptor ELISA Binding Assay; parameters: from tissue; host or cells: outdated human platelets; conditions: purified human platelet GP IIb IIIa, fibrinogen-coated plates; read-out: ELISA IC50 Fibrinogen GPIIb IIIa
Method: The method used is essentially that described in Nachman and Leung (J. Clin. Invest., 69:263-269 [1982]). The GP IIb IIIa is essentially purified as described in Fitzgerald et al., (Anal. Biochem. 151:169-177 [1985]).
Outdated human platelets are washed 3 times with 10 mM tris-HCl, 150 mM NaCl (TBS), 1 mM EDTA, pH 7.5, and centrifuged at 2000×g to pellet cells. Cells are lysed in 5 pellet volumes of TBS, 1% Triton X-100, 1 mM Ca2 Cl2, and followed by centrifugation at 30,000×g. The supernatant fraction is collected and the supernatant is loaded onto a concanavalin-A column, previously equilibrated in TBS, 1 mM Ca2 Cl2, 0.1% Triton, 0.05% NaN3 and eluted with 0.2M α-methylmannoside. Fractions are pooled and loaded onto a heparin-agarose column. The flowthrough is collected and concentration on an Amicon YM 30 filter to a volume of approximately 5-10 mi. The concentrate is then applied to an S-300 column (500 ml) and 6 ml fractions are collected. The GP IIb IlIa containing fractions are collected, pooled, and stored at -80° C.
The purification of fibrinogen is conducted essentially as described by Lipinska et al., (J. Lab. Clin. Med. 507, [1974]). Briefly, a 0.3% w/v solution of human fibrinogen (Kabi #5302) is dissolved in 150 mM NaCl. Saturated (NH4)2 SO4 is added dropwise with stirring to the fibrinogen solution to obtain about 16% saturation. The precipitate is spun down in appropriate size bottles at 2000×g. The supernatant is decanted and the precipitate resuspended in 150 mM NaCl (approximately 50% of the original volume). NH4 SO4 is again added dropwise to obtain 16% saturation. The suspension is spun down and the precipitate is resuspended in Tris-saline in a minimal volume (approximately 5% of the original volume). Any remaining insoluble material is spun down at 2000 rpm in a Sorval type centrifuge and the fibrinogen supernatant is decanted and dialyzed overnight at 4° C. against Tris-saline. Characterization of the fibrinogen is by the Bradford protein assay, SDS-PAGE, and/or Western blotting using well known standard procedures.
Briefly, 96 well plates are coated (Type Nunc 1 Maxisorp™) with 10 μg/ml purified fibrinogen (100 μl/well), and allowed to stand overnight at 4° C. The plates are washed three times with PBS Tween (0.137M NaCl, 0.003M KCl, 0.008M Na2 HPO4, 0.001M KH2 PO4, pH 7.4 at room temperature, 0.05% Tween-20) and blocked for 1 to 2 hours at room temperature with 200 μl/well TNCNT (which is 0.5% BSA, 20mM Tris, pH 7.5 at room temperature, 120 mM NaCl, 0.2% NAN3, 2mM CaCl2, 0.05% Tween 20, 0.5% BSA [Calbiochem RIA grade or better]) on a plate shaker. The plates are again washed three times with PBS/Tween and then 50 μl of sample in TNCNT is added. The mixture is incubated for 15 minutes at room temperature on a plate shaker. The stock solution of purified GP IIb IIIa receptor from human platelets, (0.4-1.0 mg/ml GP IIb IIIa in 0.1% Triton X-100, 1 mM CaCl2, 20 mM Tris, 150 mM NaCl, 0.05% NaN3 in 0.3M N-acetyl glucosamine pH 7.5, stored at -70° C.), is reconstituted to about 40 μg/ml in TNCNT. Fifty μl of this diluted GP IIb IIIa is then added to each well and incubated on a plate shaker at room temperature. After one hour, the plates are washed four times with PBS/Tween and 100 μl of a polyclonal or monoclonal antibody specific for GP IIIa such as AP3 (1 μg/ml) (See e.g. Newman et al., Blood, 65:227-232 [1985]) in ELISA buffer (PBS, 0.5% BSA, 0.05% Tween 20, 0.01% Thimerasol) is added. After a one hour incubation at room temperature on a plate shaker, the samples are washed 4 times with PBS/Tween. One hundred μl of GAM-HRP (horse radish peroxidase conjugate of goat anti-mouse IgG [Pel-Freeze Cat. 715305-1] dissolved in ELISA buffer) previously diluted to 1:10,000 is then added and the samples are incubated 1 hour at room temperature on a plate shaker. […]

Fibronectin Receptor = Fibronectin Receptor (Homo sapiens, UniProt P05556+P08648); assay: Human Fibronectin-Fibronectin Receptor ELISA Assay; type: binding; parameters: octylglucoside (OG) extracted human placenta; from tissue; host or cells: human placenta; conditions: human placenta fibronectin receptor, fibronectin-coated plates; read-out: ELISA IC50 Fibronectin FnR
Method: Fibronectin receptor is purified according to the procedures of Pytela et al., (Methods Enzymol. 144:475 […]). Briefly, fibronectin receptor is purified employing an Arg-Gly-Asp affinity chromatography from (100 mM) octylglucoside (OG) extracted human placenta. The OG extract is filtered over Sepharose 6B GRGDSPK column. The column is washed three times with three column volumes of Tris-buffered saline (TBS) TBS, 1 mM CaCl2, and 25 mM OG. The receptor is eluted with TBS, 20 mM EDTA, and 25 mM Octyl thioglucoside, and is stored in 1 mM CaCl2, 1 mM MgCl2, at -80° C.
Microtiter plates are coated with 110 μl human fibronectin (at 2 μg/ml) in TBS. Plates are washed three times with TBS containing 0.05% Tween 20. Test inhibitors are then added after washing in 10 microliter aliquots. The fibronectin receptor is added in 2-fold serial dilutions with TBS containing 20 mM octyl glucoside and 2 mM MnCl2. Plates are incubated three hours at room temperature, and washed with 200 μl TBS-Tween 20 buffer. 100 μl of affinity-purffied rabbit anti-human fibronectin receptor antibody is added to the wells and the plates are incubated two hours, washed twice with TBS-Tween and once with distilled water. Affinity-purified goat anti-rabbit IgG conjugated to horseradish peroxidase (100 μl) is added to each well followed by incubation for 60 minutes at room temperature. Plates are again washed twice with TBS-Tween and distilled water. 100 μl of substrate mixture (10 mg o-phenylenediamine in 25 ml 0.1M citrate-phosphate buffer, pH 5.0 6 μ30% H2 O2) is added to the plates and allowed to develop. The development process is stopped by adding 50 μl of 4N H2 SO4 to each well and read at […].

Chain of Fibronectin Receptor (P08648 42-894 limits assumed): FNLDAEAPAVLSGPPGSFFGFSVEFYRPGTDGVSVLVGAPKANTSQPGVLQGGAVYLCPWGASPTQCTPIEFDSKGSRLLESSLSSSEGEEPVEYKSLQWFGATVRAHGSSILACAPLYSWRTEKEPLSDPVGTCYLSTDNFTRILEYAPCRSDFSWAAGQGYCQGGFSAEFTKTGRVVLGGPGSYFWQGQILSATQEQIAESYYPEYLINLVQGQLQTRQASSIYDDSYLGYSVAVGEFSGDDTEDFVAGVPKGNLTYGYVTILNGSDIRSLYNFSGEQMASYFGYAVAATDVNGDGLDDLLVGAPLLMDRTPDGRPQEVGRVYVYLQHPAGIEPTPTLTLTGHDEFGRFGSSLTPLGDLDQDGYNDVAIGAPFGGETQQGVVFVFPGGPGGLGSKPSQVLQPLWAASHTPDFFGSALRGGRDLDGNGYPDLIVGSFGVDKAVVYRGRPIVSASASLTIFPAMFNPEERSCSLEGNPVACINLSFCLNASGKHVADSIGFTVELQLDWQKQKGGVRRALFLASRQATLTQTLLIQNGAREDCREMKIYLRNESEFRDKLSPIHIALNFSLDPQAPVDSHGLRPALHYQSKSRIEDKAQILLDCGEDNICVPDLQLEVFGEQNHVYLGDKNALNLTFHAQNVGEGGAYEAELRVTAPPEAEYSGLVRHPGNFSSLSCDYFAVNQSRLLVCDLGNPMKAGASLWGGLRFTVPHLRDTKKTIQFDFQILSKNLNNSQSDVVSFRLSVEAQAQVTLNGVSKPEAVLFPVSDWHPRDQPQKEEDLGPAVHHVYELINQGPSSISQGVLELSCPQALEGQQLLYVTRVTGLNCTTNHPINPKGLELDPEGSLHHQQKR
Chain of Fibronectin Receptor (P08648 895-1049 partner limits assumed): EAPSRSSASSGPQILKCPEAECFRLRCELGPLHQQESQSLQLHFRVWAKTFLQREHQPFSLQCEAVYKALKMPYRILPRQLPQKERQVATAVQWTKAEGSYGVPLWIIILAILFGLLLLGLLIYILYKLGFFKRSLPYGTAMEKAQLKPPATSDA
Chain of Fibronectin Receptor (P05556 21-798): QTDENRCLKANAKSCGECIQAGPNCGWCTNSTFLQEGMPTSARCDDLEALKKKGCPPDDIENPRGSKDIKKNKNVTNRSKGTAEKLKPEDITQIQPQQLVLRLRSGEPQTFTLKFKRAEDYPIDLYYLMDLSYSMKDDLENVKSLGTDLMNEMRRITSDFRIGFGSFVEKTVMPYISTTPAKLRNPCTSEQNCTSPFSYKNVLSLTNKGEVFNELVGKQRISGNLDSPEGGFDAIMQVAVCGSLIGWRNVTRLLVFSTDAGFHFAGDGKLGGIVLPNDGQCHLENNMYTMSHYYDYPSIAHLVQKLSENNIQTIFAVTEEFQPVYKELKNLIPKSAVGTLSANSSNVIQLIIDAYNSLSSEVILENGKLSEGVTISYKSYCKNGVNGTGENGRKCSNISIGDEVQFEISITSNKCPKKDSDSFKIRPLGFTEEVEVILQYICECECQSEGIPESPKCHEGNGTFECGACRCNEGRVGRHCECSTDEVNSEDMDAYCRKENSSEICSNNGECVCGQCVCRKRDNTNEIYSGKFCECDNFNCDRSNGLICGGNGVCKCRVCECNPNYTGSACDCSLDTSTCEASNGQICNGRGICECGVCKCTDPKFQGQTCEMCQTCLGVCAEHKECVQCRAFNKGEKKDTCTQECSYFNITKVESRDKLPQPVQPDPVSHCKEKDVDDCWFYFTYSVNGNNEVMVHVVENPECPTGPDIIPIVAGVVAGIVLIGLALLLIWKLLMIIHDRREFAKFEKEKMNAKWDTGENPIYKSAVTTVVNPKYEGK
Chain of GP IIb IIIa (P08514 32-887 limits assumed): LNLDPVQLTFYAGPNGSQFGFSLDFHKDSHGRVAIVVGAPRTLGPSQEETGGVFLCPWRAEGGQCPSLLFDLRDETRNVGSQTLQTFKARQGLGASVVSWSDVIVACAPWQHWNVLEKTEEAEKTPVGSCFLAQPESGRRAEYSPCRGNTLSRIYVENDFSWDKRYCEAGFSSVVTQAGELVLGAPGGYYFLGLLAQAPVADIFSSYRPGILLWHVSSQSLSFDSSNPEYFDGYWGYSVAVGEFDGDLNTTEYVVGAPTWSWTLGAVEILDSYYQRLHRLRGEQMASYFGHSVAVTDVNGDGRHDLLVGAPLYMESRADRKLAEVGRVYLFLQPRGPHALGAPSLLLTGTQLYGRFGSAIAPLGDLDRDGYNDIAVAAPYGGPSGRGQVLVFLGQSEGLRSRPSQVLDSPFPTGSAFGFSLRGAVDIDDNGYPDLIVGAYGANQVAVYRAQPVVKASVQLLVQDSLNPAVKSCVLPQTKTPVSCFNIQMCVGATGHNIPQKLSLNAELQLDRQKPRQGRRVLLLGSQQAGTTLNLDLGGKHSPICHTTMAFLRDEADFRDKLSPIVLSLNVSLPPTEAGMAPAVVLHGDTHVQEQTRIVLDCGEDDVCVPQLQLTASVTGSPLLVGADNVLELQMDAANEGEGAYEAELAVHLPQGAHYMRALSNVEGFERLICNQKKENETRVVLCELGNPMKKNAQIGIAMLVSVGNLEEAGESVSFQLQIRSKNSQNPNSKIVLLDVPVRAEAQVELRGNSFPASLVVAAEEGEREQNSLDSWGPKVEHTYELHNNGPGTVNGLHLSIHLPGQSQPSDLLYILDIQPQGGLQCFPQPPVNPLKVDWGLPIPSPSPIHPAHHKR
Chain of GP IIb IIIa (P08514 891-1039 partner limits assumed): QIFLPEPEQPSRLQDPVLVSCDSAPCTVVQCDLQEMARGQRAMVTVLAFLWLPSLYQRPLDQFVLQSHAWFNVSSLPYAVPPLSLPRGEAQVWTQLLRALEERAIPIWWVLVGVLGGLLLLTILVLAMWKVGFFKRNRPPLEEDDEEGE
Chain of GP IIb IIIa (P05106 27-788): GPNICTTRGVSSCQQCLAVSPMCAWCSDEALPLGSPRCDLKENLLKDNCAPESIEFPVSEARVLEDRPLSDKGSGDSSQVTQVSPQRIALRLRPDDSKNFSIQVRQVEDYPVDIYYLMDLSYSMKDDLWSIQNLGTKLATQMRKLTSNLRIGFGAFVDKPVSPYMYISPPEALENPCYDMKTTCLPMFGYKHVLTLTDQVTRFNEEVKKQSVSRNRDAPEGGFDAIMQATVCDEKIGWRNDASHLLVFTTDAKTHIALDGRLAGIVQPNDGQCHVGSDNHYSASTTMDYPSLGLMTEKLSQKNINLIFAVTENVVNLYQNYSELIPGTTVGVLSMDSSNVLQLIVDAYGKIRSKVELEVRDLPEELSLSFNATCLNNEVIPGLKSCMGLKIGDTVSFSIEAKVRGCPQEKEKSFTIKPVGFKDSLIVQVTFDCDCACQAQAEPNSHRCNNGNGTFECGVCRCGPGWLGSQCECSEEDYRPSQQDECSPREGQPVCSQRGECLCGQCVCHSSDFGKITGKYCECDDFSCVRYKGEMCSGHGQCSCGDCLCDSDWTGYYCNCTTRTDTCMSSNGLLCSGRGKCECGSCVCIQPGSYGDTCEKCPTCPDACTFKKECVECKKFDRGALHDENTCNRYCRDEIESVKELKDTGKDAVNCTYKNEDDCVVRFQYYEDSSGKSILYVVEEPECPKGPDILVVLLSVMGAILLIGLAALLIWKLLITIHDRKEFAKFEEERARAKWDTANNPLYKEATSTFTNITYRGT

Structure (SMILES)	increase in cutaneous bleeding time ([1]; dosed to 95% inhibition of platelet aggregation)	Rabbit BT Ratio ([1]; rabbit)	IC50 (GP IIb IIIa)	IC50 (Fibronectin Receptor)	cutaneous bleeding time, result in words [1]	increase of cutaneous bleeding time compared to the undosed animal ([1]; rabbit, dose sufficient to achieve about 97% inhibition of platelet aggregation)
N=C(N)NCCC[C@@H]1NC(=O)[C@@H](Cc2ccc(O)cc2)NC(=O)CSC[C@@H](C(=O)N[C@@H](CCCCN)C(N)=O)NC(=O)[C@H](CC(=O)O)NC(=O)CNC1=O [7/3, cyclo-S-acetyl-dTyr--Arg--Gly--Asp--Cys--Lys--NH2] ({CH2CO}-[dY]RGDCK-NH2; thioether N-5)	1.95 times	1.95	17 nM	201 nM		
N=C(N)NCCC[C@@H]1NC(=O)[C@@H](Cc2ccc(O)cc2)NC(=O)CSC[C@@H](C(=O)N[C@@H](CCCN)C(N)=O)NC(=O)[C@H](CC(=O)O)NC(=O)CNC1=O [7/5, cyclo-S-acetyl-dTyr--Arg--Gly--Asp--Cys--Orn--NH2] ({CH2CO}-[dY]RGDC[Orn]-NH2; thioether N-5)		1.26	11 nM	63 nM		
N=C(N)NCCC[C@H](NC(=O)[C@H](Cc1ccc(O)cc1)NC(=O)[C@@H]1CSCC(=O)N[C@H](Cc2ccc(O)cc2)C(=O)N[C@@H](CCCNC(=N)N)C(=O)NCC(=O)N[C@@H](CC(=O)O)C(=O)N1)C(N)=O [7/7, cyclo-S-acetyl-dTyr--Arg--Gly--Asp--Cys--Tyr--Arg--NH2] ({CH2CO}-[dY]RGDCYR-NH2; thioether N-5)		4.10	8.9 nM	27 nM		
CC1(C)SCC(=O)N[C@H](Cc2ccc(O)cc2)C(=O)N[C@@H](CCCCN)C(=O)NCC(=O)N[C@@H](CC(=O)O)C(=O)N[C@@H]1C(=O)N[C@@H](CCCNC(=N)N)C(N)=O [7/16, cyclo-S-acetyl-dTyr--Lys--Gly--Asp--Pen--Arg--NH2] ({CH2CO}-[dY]KGD[Pen]R-NH2; thioether N-5)			150 nM	> 10000 nM	without substantial increased cutaneous bleeding time	
CC1(C)SCC(=O)N[C@H](Cc2ccc(O)cc2)C(=O)N[C@@H](CCCCN)C(=O)NCC(=O)N[C@@H](CC(=O)O)C(=O)N[C@@H]1C(=O)N[C@@H](CCCCN)C(N)=O [7/17, cyclo-S-acetyl-dTyr--Lys--Gly--Asp--Pen--Lys--NH2] ({CH2CO}-[dY]KGD[Pen]K-NH2; thioether N-5)		1.13 and 1.0	238 nM	> 10000 nM	without substantial increased cutaneous bleeding time	
N=C(N)NCCC[C@@H]1NC(=O)[C@@H](Cc2ccc(O)cc2)NC(=O)CSC[C@@H](C(=O)O)NC(=O)[C@H](CC(=O)O)NC(=O)CNC1=O [7/46, cyclo-S-acetyl-dTyr--Arg--Gly--Asp--Cys--OH] ({CH2CO}-[dY]RGDC-OH; thioether N-5)			3.2 nM	3390 nM	prolongation of bleeding time in vivo in both the rabbit and dog model	8.0 times
N=C(N)NCCC[C@@H]1NC(=O)[C@@H](Cc2ccc(O)cc2)NC(=O)CSC[C@@H](C(=O)NCCCCCN)NC(=O)[C@H](CC(=O)O)NC(=O)CNC1=O [8/13, cyclo-S-acetyl-dTyr--Arg--Gly--Asp--Cys--NH--X (X = pentylamine)] ({CH2CO}-[dY]RGDC-{NH(CH2)5NH2}; thioether N-5)		1.13	9 nM	473 nM		
N=C(N)NCCC[C@@H]1NC(=O)[C@@H](Cc2ccc(O)cc2)NC(=O)CSC[C@@H](C(=O)NCCCN)NC(=O)[C@H](CC(=O)O)NC(=O)CNC1=O [8/22, cyclo-S-acetyl-dTyr--Arg--Gly--Asp--Cys--NH--X (X = propyl amine)] ({CH2CO}-[dY]RGDC-{NH(CH2)3NH2}; thioether N-5)		1.27	15 nM	176 nM		
N=C(N)NCCC[C@@H]1NC(=O)[C@@H](Cc2ccc(O)cc2)NC(=O)CSC[C@@H](C(=O)NCCN)NC(=O)[C@H](CC(=O)O)NC(=O)CNC1=O [8/23, cyclo-S-acetyl-dTyr--Arg--Gly--Asp--Cys--NH--X (X = ethyl amine)] ({CH2CO}-[dY]RGDC-Ethylenediamine; thioether N-5)		0.81	14 nM	61 nM		
N=C(N)NCCC[C@@H]1NC(=O)[C@@H](Cc2ccc(O)cc2)NC(=O)CCC[C@@H](C(=O)N[C@@H](CCCCN)C(N)=O)NC(=O)[C@H](CC(=O)O)NC(=O)CNC1=O [10/20, cyclo(1-5)dTyr--Arg--Gly--Asp--L-α-aminoadipic acid-Lys--NH2] ([dY]RGD[Aad]K-NH2; lactam N-5)		2,0	12.4 nM	2310 nM		
